Measurements: patent US7173004B2, “Macrocyclic isoquinoline peptide inhibitors of hepatitis C virus” (Bristol-Myers Squibb Company, priority 2003, dated 2007)

Target: T1, HCV NS3/4A protease complex, BMS strain (genotype 1a) (UniProt P27958, C1454S/C1711G, species not given/STRAIN_BMS)
T1 construct: b1001: DNA encoding the recombinant HCV NS3/4A protease complex (amino acids 1027 to 1711) ... a three-lysine solubilizing tail was added at the 3′-end of the NS4A coding region; fused on or other part: Three-lysine solubilising tail at the C-terminus of NS4A; A His tag is implied by the pET21b vector and Ni-NTA purification
Test: Recombinant HCV NS3/4A protease complex FRET peptide assay, BMS strain
Type: biochemical
Settings: NS3/4A BMS Strain; activity range classes
Excerpt: Recombinant HCV NS3/4A Protease Complex FRET Peptide Assay
The purpose of this in vitro assay was to measure the inhibition of HCV NS3 protease complexes, derived from the BMS strain, H77C strain or J416S strain, as described below, by compounds of the present invention. This assay provides an indication of how effective compounds of the present invention would be in inhibiting HCV proteolytic activity.
Serum from an HCV-infected patient was obtained from Dr. T. Wright, San Francisco Hospital. An engineered full-length cDNA (compliment deoxyribonucleic acid) template of the HCV genome (BMS strain) was constructed from DNA fragments obtained by reverse transcription-PCR (RT-PCR) of serum RNA (ribonucleic acid) and using primers selected on the basis of homology between other genotype 1a strains. From the determination of the entire genome sequence, a genotype 1a was assigned to the HCV isolate according to the classification of Simmonds et al. (See P Simmonds, K A Rose, S Graham, S W Chan, F McOmish, B C Dow, E A Follett, P L Yap and H Marsden, J. Clin. Microbiol., 31(6), 1493–1503 (1993)). […] The infectious clones, H77C (1a genotype) and J4L6S (1b genotype) were obtained from R. Purcell (NIH) and the sequences are published in Genbank (AAB67036, see Yanagi, M., Purcell, R. H., Emerson, S. U. and Bukh, J. Proc. Natl. Acad. Sci. U.S.A. 94(16), 8738–8743 (1997); AF054247, see Yanagi, M., St Claire, M., Shapiro, M., Emerson, S. U., Purcell, R. H. and Bukh, J, Virology 244 (1), 161–172. (1998)).
The H77C and J4L6S strains were used for production of recombinant NS3/4A protease complexes. DNA encoding the recombinant HCV NS3/4A protease complex (amino acids 1027 to 1711) for these strains were manipulated as described by P. Gallinari et al. (see Gallinari P, Paolini C, Brennan D, Nardi C, Steinkuhler C, De Francesco R. Biochemistry. 38(17):5620–32, (1999)). Briefly, a three-lysine solubilizing tail was added at the 3′-end of the NS4A coding region. The cysteine in the P1 position of the NS4A-NS4B cleavage site (amino acid 1711) was changed to a glycine to avoid the proteolytic cleavage of the lysine tag. Furthermore, a cysteine to serine mutation was introduced by PCR at amino acid position 1454 to prevent the autolytic cleavage in the NS3 helicase domain. The variant DNA fragment was cloned in the pET21b bacterial expression vector (Novagen) and the NS3/4A complex was expressed in Escherichia coli strain BL21 (DE3) (Invitrogen) following the protocol described by P. Gallinari et al. (see Gallinari P, Brennan D, Nardi C, Brunetti M, Tomei L, Steinkuhler C, De Francesco R., J. Virol. 72(8):6758–69 (1998)) with modifications. Briefly, NS3/4A expression was induced with 0.5 mM Isopropyl β-D-1-thiogalactopyranoside (IPTG) for 22 hr at 20° C. A typical fermentation (10 L) yielded approximately 80 g of wet cell paste. The cells were resuspended in lysis buffer (10 mL/g) consisting of 25 mM N-(2-Hydroxyethyl)piperazine-N′-(2-Ethane Sulfonic acid) (HEPES), pH7.5, 20% glycerol, 500 mM Sodium Chloride (NaCl), 0.5% Triton-X100, 1 microgram/milliliter (“μg/mL”) lysozyme, 5 mM Magnesium Chloride (MgCl2), 1 ug/ml DnaseI, 5 mM β-Mercaptoethanol (βME), Protease inhibitor—Ethylenediamine Tetraacetic acid (EDTA) free (Roche), homogenized and incubated for 20 mins at 4° C. The homogenate was sonicated and clarified by ultra-centrifugation at 235000 g for 1 hr at 4° C. Imidazole was added to the supernatant to a final concentration of 15 mM and the pH adjusted to 8.0. The crude protein extract was loaded on a Nickel-Nitrilotriacetic acid (Ni-NTA) column pre-equilibrated with buffer B (25 mM HEPES, pH8.0, 20% glycerol, 500 mM NaCl, 0.5% Triton-X100, 15 mM imidazole, 5 mM βME). The sample was loaded at a flow rate of 1 mL/min. The column was washed with 15 column volumes of buffer C (same as buffer B except with 0.2% Triton-X100). The protein was eluted with 5 column volumes of buffer D (same as buffer C except with 200 mM Imidazole). […]

Structure (SMILES)	IC50 [nM]
COc1ccc2c(OC3CC4C(=O)NC5(C(=O)O)CC5C=CCCCCC(NC(=O)OC(C)(C)C)C(=O)N4C3)nccc2c1 (stereo not shown) [Compound 143]	50 to 500
COc1ccc2c(OC3CC4C(=O)NC5(C(=O)O)CC5C=CCCCSCC(NC(=O)OC(C)(C)C)C(=O)N4C3)nccc2c1 (stereo not shown) [Compound 18A, 14-tert-Butoxycarbonylamino-18-(6-methoxy-isoquinolin-1-yloxy)-2,15-dioxo-12-thia-3,16-diaza-tricyclo[14.3.0.0^4,6]nonadec-7-ene-4-carboxylic acid]	50 to 500

Same assay, conditions: NS3/4A BMS strain; activity range symbols

Structure (SMILES)	IC50 [nM]
CCC1(S(=O)(=O)NC(=O)C23CC2C=CCCC[S+]([O-])CC(NC(=O)OC(C)(C)C)C(=O)N2CC(Oc4nccc5cc(OC)ccc45)CC2C(=O)N3)CC1 (stereo not shown) [Compound 47]	< 50
O=C(N[C@H]1CCCCC/C=C\[C@@H]2C[C@@]2(C(=O)NS(=O)(=O)C2CC2)NC(=O)[C@@H]2C[C@@H](Oc3nccc4ccccc34)CN2C1=O)OC1CCOCC1 [Compound 14, [4-Cyclopropanesulfonylaminocarbonyl-18-(isoquinolin-1-yloxy)-2,15-dioxo-3,16-diaza-tricyclo[14.3.0.0^4,6]nonadec-7-en-14-yl]-carbamic acid tetrahydro-pyran-4-yl ester]	< 50
COc1ccc2c(O[C@@H]3C[C@H]4C(=O)N[C@]5(C(=O)NS(=O)(=O)C6CC6)C[C@H]5/C=C\CCCCC[C@H](NC(=O)OC(C)(C)C)C(=O)N4C3)nccc2c1 [Compound 17B, [4-Cyclopropanesulfonylaminocarbonyl-18-(6-methoxy-isoquinolin-1-yloxy)-2,15-dioxo-3,16-diaza-tricyclo[14.3.0.0^4,6]nonadec-7-en-14-yl]-carbamic acid tert-butyl ester]	< 50
CC(C)(C)OC(=O)N[C@H]1CCCCC/C=C\[C@@H]2C[C@@]2(C(=O)NS(=O)(=O)C2CC2)NC(=O)[C@@H]2C[C@@H](Oc3nc(-c4ccccc4)cc4ccccc34)CN2C1=O [Compound 58, [(Z)-(1S,4R,14S,18R)-4-cyclopropanesulfonylaminocarbonyl-2,15-dioxo-18-(3-phenyl-isoquinolin-1-yloxy)-3,16-diaza-tricyclo[14.3.0.0^4,6]nonadec-7-en-14-yl]-carbamic acid tert-butyl ester]	< 50
CS(=O)(=O)NC1CCCCCC=CC2CC2(C(=O)NS(=O)(=O)C2CC2)NC(=O)C2CC(Oc3nccc4ccccc34)CN2C1=O (stereo not shown) [Compound 25]	< 50
CC(C)(C)COC(=O)N[C@H]1CCCCC/C=C\[C@@H]2C[C@@]2(C(=O)NS(=O)(=O)C2CC2)NC(=O)[C@@H]2C[C@@H](Oc3nccc4ccccc34)CN2C1=O [Compound 13, [4-Cyclopropanesulfonylaminocarbonyl-18-(isoquinolin-1-yloxy)-2,15-dioxo-3,16-diaza-tricyclo[14.3.0.0^4,6]nonadec-7-en-14-yl]-carbamic acid 2,2-dimethyl-propyl ester]	< 50
COc1ccc2c(OC3CC4C(=O)NC5(C(=O)NS(=O)(=O)C6CC6)CC5C=CCCCSCC(NC(=O)OC(C)C)C(=O)N4C3)nccc2c1 (stereo not shown) [Compound 74]	< 50
COc1ccc2c(OC3CC4C(=O)NC5(C(=O)NS(=O)(=O)C6CC6)CC5C=CCOCCCC(NC(=O)NC5CCCC5)C(=O)N4C3)nccc2c1 (stereo not shown) [Compound 33]	< 50
COc1ccc2c(OC3CC4C(=O)NC5(C(=O)NS(=O)(=O)C6(C)CC6)CC5C=CCCCS(=O)(=O)CC(NC(=O)OC(C)(C)C)C(=O)N4C3)nccc2c1 (stereo not shown) [Compound 49]	50 to 500
COc1ccc2c(OC3CC4C(=O)NC5(C(=O)NS(=O)(=O)C6CC6)CC5C=CCCCOC(C)C(NC(=O)OC(C)(C)C)C(=O)N4C3)nccc2c1 (stereo not shown) [Compound 62]	< 50
O=C(N[C@H]1CCCCC/C=C\[C@@H]2C[C@@]2(C(=O)NS(=O)(=O)C2CC2)NC(=O)[C@@H]2C[C@@H](Oc3nccc4ccccc34)CN2C1=O)O[C@H]1CCOC1 [Compound 15, [4-Cyclopropanesulfonylaminocarbonyl-18-(isoquinolin-1-yloxy)-2,15-dioxo-3,16-diaza-tricyclo[14.3.0.0^4,6]nonadec-7-en-14-yl]-carbamic acid tetrahydro-furan-3-yl ester]	< 50
